{
  "source": "ChEMBL document CHEMBL6121040",
  "about": "“Synthesis and biological assessment of BUB1B inhibitors for the treatment of clear cell renal cell carcinoma” (Eur J Med Chem, 2025)",
  "key": {"CAKI-1 [1]": {"tested_on": "CAKI-1", "assay": "Cytotoxicity against human CAKI-1 cells assessed as cell viability at 10 uM incubated for 1 day by MTT assay relative to control", "format": "functional", "conditions": "CAKI-1, 24 h, read-out: Activity"}, "CAKI-1 [2]": {"tested_on": "CAKI-1", "assay": "Cytotoxicity against human CAKI-1 cells assessed as reduction in cell viability incubated for 3 days by MTT assay", "format": "functional, cell-based"}, "CAKI-1 [3]": {"tested_on": "CAKI-1", "assay": "Induction of apoptosis in human CAKI-1 cells assessed as decrease in Bcl-2 protein level by measuring fold change at 10 uM incubated for 1 day by Western blot analysis (reference value: 1)", "format": "functional"}, "CAKI-1 [4]": {"tested_on": "CAKI-1", "assay": "Induction of apoptosis in human CAKI-1 cells assessed as increase in cleaved caspase-9 protein level at 10 uM incubated for 1 day by Western blot analysis", "format": "functional, cell-based"}, "CAKI-1 [5]": {"tested_on": "CAKI-1", "assay": "Induction of apoptosis in human CAKI-1 cells assessed as increase in cleaved PARP level by measuring fold change at IC50 concentration incubated for 1 day by Western blot analysis (reference value: 1)", "format": "functional"}, "CAKI-1 [6]": {"tested_on": "CAKI-1", "assay": "Cytotoxicity against human CAKI-1 cells assessed as necrotic cell death incubated for 3 days by LDH assay", "format": "functional, cell-based", "conditions": "CAKI-1, 72 h"}, "[7]": {"assay": "Downregulation of BUB1B protein expression level in human CAKI-1 cells at IC50 concentration incubated for 1 day by Western blot analysis (Rvb =1)", "format": "functional"}, "CAKI-1 [8]": {"tested_on": "CAKI-1", "assay": "Induction of apoptosis in human CAKI-1 cells assessed as increase in cleaved caspase-3 protein level at 10 uM incubated for 1 day by Western blot analysis", "format": "functional, cell-based"}, "[9]": {"biological_target": "T1, Mitotic checkpoint serine/threonine-protein kinase BUB1 beta (Homo sapiens, UniProt O60566)", "T1 sequence (O60566 whole entry)": "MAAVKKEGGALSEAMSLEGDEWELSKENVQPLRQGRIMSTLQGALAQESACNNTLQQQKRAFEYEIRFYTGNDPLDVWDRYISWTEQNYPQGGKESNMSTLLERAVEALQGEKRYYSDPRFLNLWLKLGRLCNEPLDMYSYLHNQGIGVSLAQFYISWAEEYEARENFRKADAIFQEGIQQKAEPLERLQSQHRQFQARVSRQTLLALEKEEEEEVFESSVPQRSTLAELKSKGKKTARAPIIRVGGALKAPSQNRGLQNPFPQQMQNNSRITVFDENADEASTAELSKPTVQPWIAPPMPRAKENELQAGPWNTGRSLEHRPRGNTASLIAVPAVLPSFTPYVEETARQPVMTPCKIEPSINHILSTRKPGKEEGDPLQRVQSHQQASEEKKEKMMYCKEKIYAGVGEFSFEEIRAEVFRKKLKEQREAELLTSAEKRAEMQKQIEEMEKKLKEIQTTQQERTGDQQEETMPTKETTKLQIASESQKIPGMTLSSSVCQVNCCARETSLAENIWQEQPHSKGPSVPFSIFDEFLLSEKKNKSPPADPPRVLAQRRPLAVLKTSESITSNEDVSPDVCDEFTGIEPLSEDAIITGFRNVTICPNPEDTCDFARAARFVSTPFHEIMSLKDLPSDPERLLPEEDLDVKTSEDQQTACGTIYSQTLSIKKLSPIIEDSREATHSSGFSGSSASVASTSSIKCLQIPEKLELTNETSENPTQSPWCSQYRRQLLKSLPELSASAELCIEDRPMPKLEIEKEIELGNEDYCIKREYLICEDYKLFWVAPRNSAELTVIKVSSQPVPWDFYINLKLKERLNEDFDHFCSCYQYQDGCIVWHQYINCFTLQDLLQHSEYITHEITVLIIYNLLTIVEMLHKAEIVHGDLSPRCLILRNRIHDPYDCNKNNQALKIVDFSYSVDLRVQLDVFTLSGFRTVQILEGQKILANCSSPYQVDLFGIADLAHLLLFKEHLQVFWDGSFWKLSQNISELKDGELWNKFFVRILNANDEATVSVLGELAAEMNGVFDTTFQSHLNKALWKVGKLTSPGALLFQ", "assay": "Destabilization of BUB1B in human CAKI-1 cells assessed as reduction in BUB1B protein level at 20 uM preincubated for 1 hrs followed by incubation under 45 degreeC for 3 mins by CETSA analysis (reference value: 1)", "format": "cell-based", "conditions": "time 63.0 min"}, "CAKI-1 [10]": {"tested_on": "CAKI-1", "assay": "Cytotoxicity against human CAKI-1 cells assessed as cell viability at 10 uM incubated for 3 day by MTT assay relative to control", "format": "functional", "conditions": "CAKI-1, 72 h, read-out: Activity"}, "CAKI-1 [11]": {"tested_on": "CAKI-1", "assay": "Induction of apoptosis in human CAKI-1 cells assessed as increase in cleaved caspase-8 protein level at 10 uM incubated for 1 day by Western blot analysis", "format": "functional, cell-based"}, "CAKI-1 [12]": {"tested_on": "CAKI-1", "assay": "Induction of apoptosis in human CAKI-1 cells assessed as increase in cleaved PARP level by measuring fold change at 10 uM incubated for 1 day by Western blot analysis (reference value: 1)", "format": "functional"}, "CAKI-1 [13]": {"tested_on": "CAKI-1", "assay": "Cytotoxicity against human CAKI-1 cells assessed as reduction in cell viability incubated for 1 day by MTT assay", "format": "functional, cell-based", "conditions": "CAKI-1, 24 h"}, "CAKI-1 [14]": {"tested_on": "CAKI-1", "assay": "Cytotoxicity against human CAKI-1 cells assessed as reduction in cell viability at 10 uM by MTT assay", "format": "functional, cell-based", "conditions": "time 1-3 day"}, "[15]": {"assay": "Downregulation of BUB1B protein expression level in human CAKI-1 cells at 10 uM incubated for 1 day by Western blot analysis (Rvb =1)", "format": "functional"}, "[16]": {"biological_target": "T1, Mitotic checkpoint serine/threonine-protein kinase BUB1 beta", "assay": "Inhibition of recombinant BUB1B (unknown origin) incubated for 60 mins in presence of [gamma-33P]-ATP by microplate scintillation counter analysis"}, "CAKI-1 [17]": {"tested_on": "CAKI-1", "assay": "Induction of apoptosis in human CAKI-1 cells assessed as decrease in Bcl-2 protein level by measuring fold change at IC50 concentration incubated for 1 day by Western blot analysis (reference value: 1)", "format": "functional"}},
  "note": "Activity calls are given as the source filed them. The rule behind the calls is not given here.",
  "data": [
    {"compound": "Cc1cnc(Nc2ccccc2P(C)(C)=O)nc1Nc1cccc(S(=O)(=O)NC(C)(C)C)c1", "values": [
      {"measurement": "viability at 10 µM", "setting": "CAKI-1 [1]", "result": 84.4, "unit": "%"}
    ]},
    {"compound": "COc1cc(Nc2ncc(C)c(Nc3cccc(S(=O)(=O)NC4CCC4)c3)n2)cc(OC)c1OC", "values": [
      {"measurement": "viability at 10 µM", "setting": "CAKI-1 [1]", "result": 33, "unit": "%"}
    ]},
    {"compound": "Cc1cnc(Nc2ccc(N3CCN(S(=O)(=O)c4ccccc4)CC3)cc2)nc1Nc1cccc(S(=O)(=O)NC(C)(C)C)c1", "values": [
      {"measurement": "viability at 10 µM", "setting": "CAKI-1 [1]", "result": 83.8, "unit": "%"}
    ]},
    {"compound": "COc1ccc(Nc2ncc(C)c(Nc3cccc(S(=O)(=O)NC(C)(C)C)c3)n2)c(OC)c1", "values": [
      {"measurement": "viability at 10 µM", "setting": "CAKI-1 [1]", "result": 66.5, "unit": "%"}
    ]},
    {"compound": "COc1ccccc1NC(=O)N1CCN(c2ccc(Nc3ncc(C)c(Nc4cccc(S(=O)(=O)NC(C)(C)C)c4)n3)cc2)CC1", "values": [
      {"measurement": "viability at 10 µM", "setting": "CAKI-1 [1]", "result": 48.4, "unit": "%"}
    ]},
    {"compound": "COc1cnccc1Nc1nc(-c2nn(Cc3c(F)cc(OCCO)cc3F)c3ccccc23)ncc1OC", "values": [
      {"measurement": "viability at 10 µM", "setting": "CAKI-1 [1]", "result": 57.8, "unit": "%"},
      {"measurement": "IC50", "setting": "CAKI-1 [2]; CAKI-1, 72 h", "result": 10.4, "unit": "µM"},
      {"measurement": "Activity", "setting": "CAKI-1 [2]; time 3.0 day", "result": "Dose-dependent-effect"},
      {"measurement": "fold change (FC)", "setting": "CAKI-1 [3]", "result": 1.03},
      {"measurement": "Activity", "setting": "CAKI-1 [4]", "result": "inactive"},
      {"measurement": "fold change (FC)", "setting": "CAKI-1 [5]", "result": 2.89},
      {"measurement": "EC50", "setting": "CAKI-1 [6]", "result": 15.9, "unit": "µM"},
      {"measurement": "fold change (FC)", "setting": "[7]", "result": 0.65},
      {"measurement": "Activity", "setting": "CAKI-1 [8]", "result": "inactive"},
      {"measurement": "fold change (FC)", "setting": "[9]", "result": 1.33},
      {"measurement": "viability at 10 µM", "setting": "CAKI-1 [10]", "result": 49.7, "unit": "%"},
      {"measurement": "Activity", "setting": "CAKI-1 [11]", "result": "inactive"},
      {"measurement": "fold change (FC)", "setting": "CAKI-1 [12]", "result": 1.23},
      {"measurement": "IC50", "setting": "CAKI-1 [13]", "result": 24.4, "unit": "µM"},
      {"measurement": "Activity", "setting": "CAKI-1 [14]", "result": "Time-dependent-effect"},
      {"measurement": "fold change (FC)", "setting": "[15]", "result": 0.73},
      {"measurement": "IC50", "setting": "[16]", "result": "> 100", "unit": "µM"},
      {"measurement": "fold change (FC)", "setting": "CAKI-1 [17]", "result": 0.62}
    ]},
    {"compound": "Cc1ccc(Nc2ncc(C)c(Nc3cccc(S(=O)(=O)NC(C)(C)C)c3)n2)cc1S(N)(=O)=O", "values": [
      {"measurement": "viability at 10 µM", "setting": "CAKI-1 [1]", "result": 43.2, "unit": "%"}
    ]},
    {"compound": "COc1cc(Nc2ncc(C)c(Nc3cccc(S(=O)(=O)NC(C)(C)C)c3)n2)c(Cl)cc1Cl", "values": [
      {"measurement": "viability at 10 µM", "setting": "CAKI-1 [1]", "result": 108, "unit": "%"}
    ]},
    {"compound": "Cc1ccc(Nc2nc(Nc3ccc(N4CCN(C)CC4)cc3)ncc2C)cc1S(N)(=O)=O", "values": [
      {"measurement": "viability at 10 µM", "setting": "CAKI-1 [1]", "result": 34.7, "unit": "%"}
    ]},
    {"compound": "Cc1cnc(Nc2ccc(N3CCN(C(=O)c4cccc(F)c4)CC3)cc2)nc1Nc1cccc(S(=O)(=O)NC(C)(C)C)c1", "values": [
      {"measurement": "viability at 10 µM", "setting": "CAKI-1 [1]", "result": 37.3, "unit": "%"}
    ]},
    {"compound": "Cc1ccc(Nc2ncc(C)c(Nc3cccc(S(=O)(=O)NC(C)(C)C)c3)n2)cc1Nc1nccc(-c2cccnc2)n1", "values": [
      {"measurement": "viability at 10 µM", "setting": "CAKI-1 [1]", "result": 77, "unit": "%"}
    ]},
    {"compound": "Cc1cnc(Nc2ccc(N3CCN(C)CC3)cc2)nc1Nc1cccc(S(=O)(=O)NC(C)(C)C)c1C", "values": [
      {"measurement": "viability at 10 µM", "setting": "CAKI-1 [1]", "result": 52.1, "unit": "%"}
    ]},
    {"compound": "Cc1cnc(Nc2cccc(S(=O)(=O)NC(C)(C)C)c2)nc1Nc1cccc(S(=O)(=O)NC(C)(C)C)c1", "values": [
      {"measurement": "viability at 10 µM", "setting": "CAKI-1 [1]", "result": 64.7, "unit": "%"}
    ]},
    {"compound": "Cc1ccccc1NC(=O)N1CCN(c2ccc(Nc3ncc(C)c(Nc4cccc(S(=O)(=O)NC(C)(C)C)c4)n3)cc2)CC1", "values": [
      {"measurement": "viability at 10 µM", "setting": "CAKI-1 [1]", "result": 45, "unit": "%"}
    ]},
    {"compound": "Cc1cc(Nc2ncc(Cl)c(Nc3ccccc3S(=O)(=O)C(C)C)n2)c(OC(C)C)cc1C1CCNCC1", "note": "[CERITINIB]", "values": [
      {"measurement": "IC50", "setting": "[16]", "result": 13.1, "unit": "µM"}
    ]},
    {"compound": "Cc1cnc(Nc2cccc(S(=O)(=O)N3CCOCC3)c2)nc1Nc1cccc(S(=O)(=O)NC(C)(C)C)c1", "values": [
      {"measurement": "viability at 10 µM", "setting": "CAKI-1 [1]", "result": 60.6, "unit": "%"}
    ]},
    {"compound": "Cc1cnc(Nc2ccc(Oc3ccc(Cl)cc3)nc2)nc1Nc1cccc(S(=O)(=O)NC(C)(C)C)c1", "values": [
      {"measurement": "viability at 10 µM", "setting": "CAKI-1 [1]", "result": 87.7, "unit": "%"}
    ]},
    {"compound": "Cc1cnc(Nc2ccc(N3CCN(C(=O)N(C)c4ccccc4)CC3)cc2)nc1Nc1cccc(S(=O)(=O)NC(C)(C)C)c1", "values": [
      {"measurement": "viability at 10 µM", "setting": "CAKI-1 [1]", "result": 44.5, "unit": "%"}
    ]},
    {"compound": "COc1cc(Nc2ncc(C)c(Nc3ccc(N4CCN(C)CC4)cc3)n2)cc(OC)c1OC", "values": [
      {"measurement": "viability at 10 µM", "setting": "CAKI-1 [1]", "result": 39.9, "unit": "%"}
    ]},
    {"compound": "COc1ncnc(NS(=O)(=O)c2ccc(Nc3ncc(C)c(Nc4cccc(S(=O)(=O)NC(C)(C)C)c4)n3)cc2)c1OC", "values": [
      {"measurement": "viability at 10 µM", "setting": "CAKI-1 [1]", "result": 104, "unit": "%"}
    ]}
  ]
}
